Results reported in a compilation of properties of binary mixtures (doi:10.1021/jp071051m).

Assay: xn = mol fraction of the nth substance listed
Conditions: 298.15 K, 101 kPa

CCCC[n+]1ccn(C)c1.O=C([O-])C(F)(F)F + CC#N
Conditions | electrical conductivity [S/m] | viscosity [mPa·s]
x2 = 0 | 0.455 | 52.9
x2 = 0.0798 | 0.562 | 42.7
x2 = 0.1769 | 0.699 | 31.7
x2 = 0.3539 | 1.05 | 17.4
x2 = 0.4443 | 1.32 | 12.1
x2 = 0.547 | 1.69 | 7.61
x2 = 0.6553 | 2.19 | 4.38
x2 = 0.7649 | 2.76 | 2.27
x2 = 0.8457 | 3.06 | 1.19
x2 = 0.8802 | 3.09 | 1.09

CCCC[n+]1ccn(C)c1.F[P-](F)(F)(F)(F)F + CC(C)=O
Conditions | electrical conductivity [S/m] | viscosity [mPa·s]
x2 = 0 | 0.157 | 260
x2 = 0.1006 | 0.256 | 148
x2 = 0.1935 | 0.389 | 89
x2 = 0.3033 | 0.612 | 48.4
x2 = 0.3988 | 0.89 | 27.4
x2 = 0.6016 | 1.81 | 7.36
x2 = 0.6992 | 2.38 | 3.76
x2 = 0.8433 | 3.11 | 1.34
x2 = 0.8853 | 3.12 | 1.02

ClCCl + CCCC[n+]1ccn(C)c1.F[P-](F)(F)(F)(F)F
Conditions | electrical conductivity [S/m] | viscosity [mPa·s]
x1 = 0.0753 | 0.213 | 180
x1 = 0.163 | 0.294 | 129
x1 = 0.3361 | 0.533 | 58.2
x1 = 0.5384 | 0.97 | 18.7
x1 = 0.6462 | 1.24 | 9.5
x1 = 0.738 | 1.43 | 5
x1 = 0.8242 | 1.42 | 2.57
x1 = 0.8678 | 1.3 | 1.82

CCCC[n+]1ccn(C)c1.F[P-](F)(F)(F)(F)F + CCOC(C)=O
Conditions | electrical conductivity [S/m] | viscosity [mPa·s]
x2 = 0 | 0.157 | 260
x2 = 0.0883 | 0.229 | 167
x2 = 0.1793 | 0.326 | 101
x2 = 0.4691 | 0.771 | 21
x2 = 0.5703 | 0.96 | 11.3
x2 = 0.6738 | 1.1 | 5.69
x2 = 0.8339 | 0.96 | 2.07

CCCC[n+]1ccn(C)c1.O=C([O-])C(F)(F)F + ClC(Cl)Cl
Conditions | electrical conductivity [S/m] | viscosity [mPa·s]
x2 = 0 | 0.455 | 52.9
x2 = 0.0918 | 0.507 | 46.4
x2 = 0.1815 | 0.558 | 40.4
x2 = 0.2793 | 0.618 | 33.7
x2 = 0.3861 | 0.692 | 25.9
x2 = 0.482 | 0.766 | 19.3
x2 = 0.5804 | 0.85 | 13
x2 = 0.6467 | 0.89 | 9.7
x2 = 0.6812 | 0.9 | 7.85
x2 = 0.729 | 0.89 | 6.06
x2 = 0.7847 | 0.826 | 4.02
x2 = 0.8677 | 0.603 | 2.02

CCCC[n+]1ccn(C)c1.F[P-](F)(F)(F)(F)F + ClCCl
x2 = 0
Conditions | electrical conductivity [S/m] | viscosity [mPa·s]
– | 0.157 | 260

CCCC[n+]1ccn(C)c1.O=C([O-])C(F)(F)F + O
Conditions | electrical conductivity [S/m] | viscosity [mPa·s]
x2 = 0 | 0.455 | 52.9
x2 = 0.1093 | 0.543 | 46.3
x2 = 0.197 | 0.619 | 40.9
x2 = 0.2888 | 0.713 | 35.5
x2 = 0.396 | 0.88 | 29.2
x2 = 0.4921 | 1.07 | 23.8
x2 = 0.5897 | 1.34 | 18.7
x2 = 0.6918 | 1.72 | 13.6
x2 = 0.7927 | 2.38 | 9
x2 = 0.884 | 3.14 | 5.13
x2 = 0.9195 | 3.34 | 3.67

CCCC[n+]1ccn(C)c1.F[P-](F)(F)(F)(F)F + c1ccncc1
Conditions | electrical conductivity [S/m] | viscosity [mPa·s]
x2 = 0 | 0.157 | 260
x2 = 0.0964 | 0.222 | 161
x2 = 0.1929 | 0.308 | 102
x2 = 0.291 | 0.435 | 63.4
x2 = 0.3899 | 0.599 | 38
x2 = 0.5922 | 1.11 | 12.1
x2 = 0.6978 | 1.43 | 6.35
x2 = 0.7695 | 1.63 | 3.73
x2 = 0.8372 | 1.73 | 2.42
x2 = 0.8781 | 1.68 | 1.94
